In brackets after ≈: the same amount, converted by molar mass. Like-named read-outs stand apart in the source and are kept apart here.
How the values were obtained:
[1] = in vivo, cited from earlier work
[2] = set-up: species or system Dog (Canis familiaris)/Beagle; conditions: male, beagle, dog, in vivo, 20 mg/kg
Experimental: An in vivo dog study in beagles was carried out to determine the pharmacokinetic (PK) profile of Remdesivir following 1) a single intravenous (IV) infusion of a control formulation and 2) an oral (PO) dose of an Example pharmaceutical composition ES040-72 according to the present invention.
For both IV or oral (PO) administered doses, plasma samples were collected over a period of 48 hours. Further details of the plasma collection are detailed in Table 13.

[3] = set-up: species or system Dog (Canis familiaris)/Beagle; conditions: dog, in vivo
Source text: For both IV or oral (PO) administered doses, blood samples were collected to determine the presence of analytes in PBMCs. Further details are detailed in Table 14. [table]

[4] = test system: SARS-CoV-2 infected cell lines; conditions: shown in the literature; cited from earlier work
[5] = not told; cited from earlier work
[6] = test system: human hepatocytes; assay: In vitro metabolism study of Remdesivir with human hepatocytes; type: in vitro ADME
Experimental: The Relative abundance (%) of metabolites post-incubation of Remdesivir (10 μM) was determined after culture with human hepatocytes (1.3 million cells/mL).
Samples were analysed by ultra-high performance liquid chromatography tandem mass spectrometry (UHPLC-MS/MS) with a quadrople time of flight mass spectrometer, for acquisition of high-resolution accurate mass data, with electrospray ionization incorporating in-line UV detection with a photodiode array detector.

[7] = physchem; type: physicochemical
Source text: The solubility of Remdesivir was screened in a range of different acids to test the effect of pH and acidity on Remdesivir solubility.

[8] = Remdesivir solubility in co-solvents; type: physicochemical
[9] = physchem; type: physicochemical; conditions: aqueous with cosolvent or surfactant or cyclodextrin, read-out: Remdesivir Solubility
[10] = type: physicochemical
Experimental: In order to determine the stability of the prodrug Remdesivir at different pH, the stability of prodrug Remdesivir was tested over time at physiologically relevant pH of gastrointestinal media. The degradation of Remdesivir was determined by measuring the amount of unchanged Remdesivir using a suitable high pressure liquid chromatographic (HPLC) method and comparing the results against a pure reference sample of Remdesivir.

[11] = Dissolution and solubility study, Type II dissolution apparatus; type: physicochemical; conditions: drug substance powder in hard-gelatin capsule without excipients; 15 mg in 300 mL 0.4% Tween 80 in water, 100 rpm
Experimental: The solubility and/or dissolution of Remdesivir over time was determined for various pharmaceutical compositions using a Type II dissolution apparatus. The dissolution of the liquid formulation filled into hard-gelatin capsule and “as-is”, i.e. without being filled into the capsule shell were compared to the release of the non-formulated powder drug substance filled into the capsule, as well as the latter in combination with the solubilizing complexing agent, SBEβCD. The dissolution profiles were compared to that of acetaminophen drug substance filled into a hard-gelatin capsule. Acetaminophen has over 80% bioavailability in practice. […] At appropriate time intervals, about 1 mL aliquots of the dissolution media were withdrawn, filtered and tested using a high-pressure chromatographic assay method for Remdesivir. The area under the peak for the drug at the standard elution time was then compared against that of an external reference standard of Remdesivir to determine the concentration of dissolved Remdesivir at any given time.
Specifically, the Example formulation 1 (ES040-36) comprising Remdesivir was tested both as a solution added directly into the dissolution medium without being filled into a capsule shell to represent the release from an oral solution and also as filled into a hard-gelatin capsule. […]

[12] = in vivo, iv; cited from earlier work

## CC(=O)Nc1ccc(O)cc1 [Acetaminophen, acetaminophen]
[1]
  bioavailability: over 80%

## N#C[C@@]1(c2ccc3c(N)ncnn23)O[C@H](CO)[C@@H](O)[C@H]1O [GS-441524]
[2]; iv
  AUCinf: 22000 ± 1950 ng·h/mL
  AUClast: 19800 ± 2510 ng·h/mL
[2]; po
  AUCinf: 21700 ± 2170 ng·h/mL
  AUClast: 21500 ± 2100 ng·h/mL
[3]
  detection in PBMC cells: detected
[4]
  in vitro activity against SARS-CoV-2 infected cell lines: considerable in vitro activity
[1]; po
  oral bioavailability: poor oral bioavailability
[5]
  permeability through the intestinal membrane: poor permeability

## C[C@H](NP(=O)(O)OC[C@H]1O[C@@](C#N)(c2ccc3c(N)ncnn23)[C@H](O)[C@@H]1O)C(=O)O [GS-704277]
[6]; 2 h, Remdesivir 10 μM, human hepatocytes 1.3 million cells/mL
  Relative abundance of analytes post-incubation with Remdesivir: 0.0%
[6]; 6 h, Remdesivir 10 μM, human hepatocytes 1.3 million cells/mL
  Relative abundance of analytes post-incubation with Remdesivir: 2.4%
[6]; 24 h, Remdesivir 10 μM, human hepatocytes 1.3 million cells/mL
  Relative abundance of analytes post-incubation with Remdesivir: 2.2%

## CCC(CC)COC(=O)[C@H](C)N[P@](=O)(OC[C@H]1O[C@@](C#N)(c2ccc3c(N)ncnn23)[C@H](O)[C@@H]1O)Oc1ccccc1 [Remdesivir]
[7]; pH 0.5
  solubility: 1690 µg/mL (≈ 2800 µM)
[7]; pH 0.5, aqueous buffer, Solubility
  solubility: 950 µg/mL (≈ 1580 µM)
[7]; pH 0.98, simulated gastric fluid, Solubility
  solubility: 2490 µg/mL (≈ 4130 µM)
[7]; pH 1, aqueous buffer, Solubility
  solubility: 640 µg/mL (≈ 1060 µM)
[7]; pH 1.38, simulated gastric fluid, Solubility
  solubility: 980 µg/mL (≈ 1630 µM)
[7]; pH 1.89, simulated gastric fluid, Solubility
  solubility: 340 µg/mL (≈ 564 µM)
[7]; pH 2.91, aqueous buffer, Solubility
  solubility: 5 µg/mL (≈ 8.3 µM)
[7]; pH 3.5, aqueous buffer, Solubility
  solubility: 10 µg/mL (≈ 16.6 µM)
[7]; pH 4.74, aqueous buffer, Solubility
  solubility: 1 µg/mL (≈ 1.66 µM)
[7]; pH 6.18, aqueous buffer, Solubility
  solubility: 0.9 µg/mL (≈ 1.49 µM)
[7]; pH 6.72
  solubility: 0 µg/mL
[8]; oil or lipid, Solubility
  solubility: 15900 µg/mL (≈ 26400 µM)
[8]; organic solvent or mixture, solvent Span 80, read-out: Solubility
  solubility: 300 µg/mL (≈ 498 µM)
[9]; Kolliphor EL (Polyoxyl 35 Castor Oil, Cremophor) 0.10 % w/w in water
  solubility: 20 µg/mL (≈ 33.2 µM)
[9]; Poloxamer P407 0.07 % w/w in water
  solubility: 6 µg/mL (≈ 9.96 µM)
[9]; TWEEN 20 (Polysorbate 20) 0.16 % w/w in water
  solubility: 16 µg/mL (≈ 26.6 µM)
[9]; TWEEN 80 (Polysorbate 80) 0.30 % w/w in water
  solubility: 33 µg/mL (≈ 54.8 µM)
[10]
  stability / degradation of Remdesivir in solution: acceptable stability and minimal degradation
[11]
  dissolution of Remdesivir: very slow dissolution
[6]; human, 2 h, 10 μM
  Relative abundance of analytes post-incubation with Remdesivir: 4.8%
[6]; human, 6 h, 10 μM
  Relative abundance of analytes post-incubation with Remdesivir: 0.1%
[6]; human, 24 h, 10 μM
  Relative abundance of analytes post-incubation with Remdesivir: 0.7%
[12]
  plasma concentration relative to its own EC50: rapidly declines to well below its own EC50

— US20230355649A1, “FORMULATIONS OF ANTI-VIRAL COMPOUNDS” (priority 2020, published 2023)
